Measurements: article PMC4081582, “Enhancing Effect of Borneol and Muscone on Geniposide Transport across the Human Nasal Epithelial Cell Monolayer” (PLoS ONE, 2014)

How the values were obtained:
[1] = cited from earlier work
P-gp = P-gp substrate assessment from bidirectional transport in HNEC monolayer; type: in vitro ADME, human; conditions: HNEC model
Description: (§1) The transport experiments were carried out when transepithelial electrical resistance (TEER) value was higher than 500 Ω·cm^2. The transport studies were performed by initially incubating the monolayers in Hanks balanced salt solution (HBSS) for 30 min at 37 °C. To measure apical (A) → basolateral (B) transport, 0.5 mL of drug solution and 1.5 mL of HBSS were added in the A and B sides, respectively. Basolateral (B) → apical (A) transport was evaluated by adding 1.5 mL of drug solution in B side and 0.5 mL of HBSS in A side.
(§2) The apparent permeability coefficients (Papp) for geniposide were calculated according to the following equation (2): [drawing 2] where Papp is the permeability, dQ/dt is the apparent appearance rate of drug in the receiver side calculated using linear regression of amounts in the receiver chamber versus time, C is the drug concentration in the donor chamber and S is the surface area of the monolayer. The efflux ratio (ER) was calculated according to the following equation (3): [drawing 3]

HNECs [2] = experiment: Membrane fluidity of HNECs by FRAP; type: cell-based, human
Description: The cells were seeded on cell plate at a density of 5×10^4 cells·cm^−2. The above formulation groups were added and the plates were incubated for 3 h at 37 °C in a 5% CO2 incubator. Cells were rinsed with HBSS and stained with NBD-C6-HPC at 2 µg·mL^−1 for 30 min.
A method of fluorescence recovery after photobleaching (FRAP) was used here. After the definition of line scanning position, length and photobleaching position, the monolayer was visualized by a Confocal Laser Scanning Microscope under the following conditions: excitation wavelength of 488 nm, emission wavelength of 530 nm, laser power for fluorescence bleaching of 100%, bleaching time of 0.7 s, scanning frequency of 1.65 s and the total scanning time of 100 s. The fluorescence intensity time-variation at the photobleaching position was recorded and image formation was obtained by confocal tomoscanning.
The membrane fluidity was represented by fluorescence recovery rate (R) which was calculated with the following equation (4): [drawing 4] where F0 is the instant fluorescence value after photobleaching, F1 is the fluorescence value before photobleaching and F2 is the fluorescence recovery value after photobleaching.

[3] = rats, at 3 h; cited from earlier work
HNECs [4] = experiment: MTT cytotoxicity assay on HNECs; type: cell-based, human; conditions: 24 h
Description: The cytotoxicity of the main active ingredients in “Xing Nao Jing” on HNECs was evaluated by the methyl thiazolyl tetrazolium (MTT) colorimetric assay. Briefly, 100 µL of 5×10^4 cells·mL^−1 was seeded into 96-well plates. After 24 h, the medium was removed and replaced with a fresh medium containing increasing concentrations of geniposide, borneol, muscone and their combinations for another 24 h. After that, 15 µL of a 5 mg·mL^−1 MTT solution in 100 µL BEGM was added to each well. After 4 h of incubation, the supernatant was discarded and formazan crystals were dissolved in DMSO followed by vigorous mixing. Control wells were incubated with BEGM only and were treated similarly as above. The optical density was determined at 490 nm with a Multiskan Go microplate reader (Thermo, USA). The percent viability of the cells was determined from the absorbance values considering that of the control as 100%.
The percentage of cell toxicity in the MTT assay was calculated by the following equation (1): [drawing 1]

[5] = mice, intravenous administration; cited from earlier work
[6] = Transport of geniposide across the HNEC monolayer; type: in vitro ADME, human; conditions: human
Description: (§3) When HNECs reached approximately 80–90% confluence, the cells were detached with trypsin and were seeded at a density of 2×10^5 cells·cm^−2 on PET inserts. The culture medium was BEGM:DMEM/F12 (1∶1) in both sides at 37 °C in an atmosphere of 5% CO2 and 95% relative humidity, which was first changed after 24 h of seeding and then every 2 days.
as §1
(§4) Geniposide transport was studied at three concentrations: 25, 50 and 100 µg·mL^−1. The effect of borneol was studied at 27.8, 55.6 and 111.2 µg·mL^−1 concentrations in the presence of 50 µg·mL^−1 geniposide. The effect of muscone was studied at 4.17, 8.34 and 16.68 µg·mL^−1 concentrations in the presence of 50 µg·mL^−1 geniposide. Finally, the effects of both borneol and muscone were studied at the concentrations mentioned above in the presence of 50 µg·mL^−1 geniposide.
(§5) Each measurement was evaluated in triplicate. Cells were incubated in a 37 °C shaking incubator. Samples of 200 µL were taken from the apical side (to study B → A transport) and samples of 600 µL were taken from the basal side (to study A → B transport) at 30, 60, 90, 120, 150, 180 min time intervals. The same volume of fresh preheated HBSS was added to keep the volume constant. Samples were centrifuged for 10 min at 12,000 r·min^−1 and the supernatant was analyzed for geniposide by HPLC.
(§6) An UV-HPLC method was used to quantify the geniposide concentrations in the transport studies. The chromatographic conditions consisted of a Purospher Star C18 column (4×200 mm, particle size 5 µm) plus guard column. Geniposide samples were analyzed with UV detection (λ = 238 nm) and the mobile phase was composed of acetonitrile and water (16∶84, v/v). The mobile phase was pumped at a flow rate of 1 mL·min^−1 and the injected volume was 20 µL. In these conditions, the retention time of geniposide was 8.5 min.
as §2

HNEC monolayer [7] = experiment: Transport of geniposide across the HNEC monolayer; type: in vitro ADME, human; conditions: for B→A fluxes of geniposide / A→B fluxes of geniposide: P<0.05 vs control
Description: as §3, §1, §4, §5, §6, §2

actin = experiment: Actin immunostaining of HNEC monolayer (tight junction); type: cell-based, human; conditions: 3 h exposure with geniposide 50 µg·mL^−1, vs control
Description: Cells cultured on 12-well polyester membrane Transwell clear inserts were stained for actin. […] Fluorescence was visualized on an epifluorescence microscope (IX-71, Olympus, Japan) using a blue filter and images were taken using the analysis software.

HNEC monolayer [8] = experiment: TEER measurement of HNEC monolayer; type: cell-based, human
Description: Transepithelial electrical resistance was measured using an EVOM instrument (Millipore Corporation, USA) to check the monolayer integrity. The TEER of untreated cells and cells treated with borneol and muscone was determined in BEGM:DMEM/F12 (1∶1) before the experiment, after the experiment and after 24 h.

[9] = Ge 50 µg·mL^−1 +Bo 27.8 µg·mL^−1
[10] = Ge 50 µg·mL^−1 +Bo 27.8 µg·mL^−1 Mu 4.17 µg·mL^−1
[11] = Ge 50 µg·mL^−1 +Bo 55.6 µg·mL^−1
[12] = Ge 50 µg·mL^−1 +Bo 55.6 µg·mL^−1 Mu 8.34 µg·mL^−1
[13] = Ge 50 µg·mL^−1 +Bo 111.2 µg·mL^−1
[14] = Ge 50 µg·mL^−1 +Bo 111.2 µg·mL^−1 Mu 16.68 µg·mL^−1
[15] = Ge 50 µg·mL^−1 +Mu 4.17 µg·mL^−1
[16] = Ge 50 µg·mL^−1 +Mu 8.34 µg·mL^−1
[17] = Ge 50 µg·mL^−1 +Mu 16.68 µg·mL^−1
[18] = geniposide 50 µg·mL^−1 alone (control)

COC(=O)C1=CO[C@@H](O[C@@H]2O[C@H](CO)[C@@H](O)[C@H](O)[C@H]2O)[C@@H]2C(CO)=CC[C@H]12 [geniposide, Geniposide]
apparent partition coefficient between octanol and water [1]: about 0.108 | P-gp substrate (P-gp): not a P-gp substrate | Fluorescence recovery rate R (%)±SD (HNECs [2]; Ge 50 µg·mL^−1 alone (control), 3 h): 33.08±1.74% | absorption percentage in the intestinal tract [3]: about 15.9% | concentration range with no cell cytotoxicity (HNECs [4]): 0 to 400 µg/mL | brain/blood drug ratio [5]: about 10% | Papp A→B at 180 min, 50 µg·mL^−1 [6, 9]: 1.17 ± 0.12 ×10⁻⁶ cm/s | Papp B→A at 180 min, 50 µg·mL^−1 [6, 9]: 1.61 ± 0.034 ×10⁻⁶ cm/s | Papp A→B at 180 min, 50 µg·mL^−1 [6, 10]: 1.43 ± 0.083 ×10⁻⁶ cm/s | Papp B→A at 180 min, 50 µg·mL^−1 [6, 10]: 1.81 ± 0.024 ×10⁻⁶ cm/s | Papp A→B at 180 min, 50 µg·mL^−1 [6, 11]: 1.35 ± 0.086 ×10⁻⁶ cm/s | Papp B→A at 180 min, 50 µg·mL^−1 [6, 11]: 1.92 ± 0.111 ×10⁻⁶ cm/s | Papp A→B at 180 min, 50 µg·mL^−1 [6, 12]: 1.75 ± 0.043 ×10⁻⁶ cm/s | Papp B→A at 180 min, 50 µg·mL^−1 [6, 12]: 1.916 ± 0.019 ×10⁻⁶ cm/s | Papp A→B at 180 min, 50 µg·mL^−1 [6, 13]: 1.99 ± 0.293 ×10⁻⁶ cm/s | Papp B→A at 180 min, 50 µg·mL^−1 [6, 13]: 1.99 ± 0.126 ×10⁻⁶ cm/s | Papp A→B at 180 min, 50 µg·mL^−1 [6, 14]: 1.92 ± 0.049 ×10⁻⁶ cm/s | Papp B→A at 180 min, 50 µg·mL^−1 [6, 14]: 2.39 ± 0.052 ×10⁻⁶ cm/s | Papp A→B at 180 min, 50 µg·mL^−1 [6, 15]: 1.15 ± 0.068 ×10⁻⁶ cm/s | Papp B→A at 180 min, 50 µg·mL^−1 [6, 15]: 1.6 ± 0.021 ×10⁻⁶ cm/s | Papp A→B at 180 min, 50 µg·mL^−1 [6, 16]: 1.61 ± 0.054 ×10⁻⁶ cm/s | Papp B→A at 180 min, 50 µg·mL^−1 [6, 16]: 2.039 ± 0.018 ×10⁻⁶ cm/s | Papp A→B at 180 min, 50 µg·mL^−1 [6, 17]: 1.97 ± 0.108 ×10⁻⁶ cm/s | Papp B→A at 180 min, 50 µg·mL^−1 [6, 17]: 2.104 ± 0.02 ×10⁻⁶ cm/s | Papp A→B at 180 min, 25 µg·mL^−1 ([6]; geniposide 25 µg·mL^−1): 1.27 ± 0.314 ×10⁻⁶ cm/s | Papp B→A at 180 min, 25 µg·mL^−1 ([6]; geniposide 25 µg·mL^−1): 1.35 ± 0.113 ×10⁻⁶ cm/s | efflux ratio at 180 min, 25 µg·mL^−1 ([6]; geniposide 25 µg·mL^−1, read-out: ER±SD(B→A/A→B)): 1.1 ± 0.256 | Papp A→B at 180 min, 50 µg·mL^−1 [6, 18]: 1.22 ± 0.015 ×10⁻⁶ cm/s | Papp B→A at 180 min, 50 µg·mL^−1 [6, 18]: 1.26 ± 0.084 ×10⁻⁶ cm/s | efflux ratio at 180 min, 50 µg·mL^−1 ([6]; geniposide 50 µg·mL^−1 alone (control), read-out: ER±SD(B→A/A→B)): 1.03 ± 0.076 | Papp A→B at 180 min, 100 µg·mL^−1 ([6]; geniposide 100 µg·mL^−1): 1.25 ± 0.074 ×10⁻⁶ cm/s | Papp B→A at 180 min, 100 µg·mL^−1 ([6]; geniposide 100 µg·mL^−1): 1.19 ± 0.104 ×10⁻⁶ cm/s | efflux ratio at 180 min, 100 µg·mL^−1 ([6]; geniposide 100 µg·mL^−1, read-out: ER±SD(B→A/A→B)): 0.951 ± 0.132 | Papp at 180 min ([6]; HNEC monolayer, geniposide 25-100 µg·mL^−1, read-out: permeability coefficients): 1.22 to 1.27 ×10⁻⁶ cm/s | ER±SD(B→A/A→B) (HNEC monolayer [7]; [9]): 1.388±0.162 | ER±SD(B→A/A→B) (HNEC monolayer [7]; [10]): 1.268±0.057 | ER±SD(B→A/A→B) (HNEC monolayer [7]; [11]): 1.429±0.149 | ER±SD(B→A/A→B) (HNEC monolayer [7]; [12]): 1.092±0.023 | ER±SD(B→A/A→B) (HNEC monolayer [7]; [13]): 1.012±0.106 | ER±SD(B→A/A→B) (HNEC monolayer [7]; [14]): 1.245±0.026 | ER±SD(B→A/A→B) (HNEC monolayer [7]; [15]): 1.400±0.071 | ER±SD(B→A/A→B) (HNEC monolayer [7]; [16]): 1.268±0.033 | ER±SD(B→A/A→B) (HNEC monolayer [7]; [17]): 1.072±0.069 | B→A fluxes of geniposide (HNEC monolayer [7]; Ge 50 µg·mL^−1 combined with borneol (27.8, 55.6, 111.2 µg·mL^−1)): significantly increased | B→A fluxes of geniposide (HNEC monolayer [7]; Ge 50 µg·mL^−1 combined with muscone (4.17, 8.34, 16.68 µg·mL^−1)): significantly increased | A→B fluxes of geniposide (HNEC monolayer [7]; Ge 50 µg·mL^−1 in presence of borneol (111.2 µg·mL^−1)): significantly increased | A→B fluxes of geniposide (HNEC monolayer [7]; Ge 50 µg·mL^−1 in presence of muscone (8.34, 16.68 µg·mL^−1)): significantly increased | permeability values in both directions (HNEC monolayer [7]; Ge 50 µg·mL^−1 in the presence of borneol and muscone (Bo 27.8/Mu 4.17, Bo 55.6/Mu 8.34, Bo 111.2/Mu 16.68 µg·mL^−1), P<0.05): an increasing of permeability values in both directions was observed in a concentration-dependent manner | (B→A)/(A→B) permeability ER (HNEC monolayer [7]; geniposide 25, 50 and 100 µg·mL^−1): less than 2

C[C@@H]1CCCCCCCCCCCCC(=O)C1 [muscone, Muscone]
levels of the TJ proteins localized in the cell-cell junctions (actin): decreased | TEER after washing and incubating with BEGM:DMEM/F12 (1∶1) for 24 h (HNEC monolayer [8]; after permeation experiment): increased again | TEER decrease during permeation studies, of the initial value (HNEC monolayer [8]; borneol 55.6, 111.2 µg·mL^−1, muscone 8.34, 16.68 µg·mL^−1, and combinations, P<0.05): 10–20% | Fluorescence recovery rate R (%)±SD (HNECs [2]; Mu 4.17 µg·mL^−1 with Ge 50 µg·mL^−1, 3 h): 36.43±3.37% | Fluorescence recovery rate R (%)±SD (HNECs [2]; Mu 8.34 µg·mL^−1 with Ge 50 µg·mL^−1, 3 h): 45.45±1.68 % | Fluorescence recovery rate R (%)±SD (HNECs [2]; Mu 16.68 µg·mL^−1 with Ge 50 µg·mL^−1, 3 h): 49.77±5.63 %
